This note sets out measurements from publication PMC12464775, “Selective and Potent Peptide Binders of RNF43 for Wnt Signaling Inhibition” (ACS Central Science, 2025).

Bridge positions count the residues as written; N and C are the ends. Peptide text beside a SMILES is read from it.

One test has as its target T1, human RNF43 (Homo sapiens, UniProt Q68DV7).
T1 construct: ECD of the human RNF43 protein was incubated with EZ-link-NHS-PEG4-biotin; biotin (chemical label, NHS-PEG4-biotin on amines, 1-2 per protein)
T1 sequence (Q68DV7 24-197 limits assumed): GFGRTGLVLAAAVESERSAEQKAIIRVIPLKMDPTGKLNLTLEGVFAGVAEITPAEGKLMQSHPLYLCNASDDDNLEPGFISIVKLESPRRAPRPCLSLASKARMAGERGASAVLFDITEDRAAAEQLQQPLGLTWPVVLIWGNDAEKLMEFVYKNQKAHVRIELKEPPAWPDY
The test can be described thus: SPR binding of DCPs to immobilized human RNF43 ECD. Particulars: SPR, Biacore S200, biotinylated human RNF43 captured on SA sensor, DCP injected, PBS-T pH 7.4; independently performed at least three times; NB = no binding. The protocol: ECD of the human RNF43 protein was incubated with EZ-link-NHS-PEG4-biotin (Thermo Fisher, 1:1, 50 μM) for 1 h at room temperature (RT). The reaction was quenched by addition of 10 mM Glycine, followed by dialysis into phosphate buffered saline (PBS) overnight at 4 °C. Finally, the biotinylated protein was analyzed using LC-MS to ensure that each protein is labeled with 1–2 biotin molecules. ,
(§1) SPR measurement was carried out using a Biacore S200 (Cytiva) instrument, with PBS-T (PBS with 0.05% Tween 20, pH 7.4) as the buffer. Biotinylated protein was captured on three sensor channels of Series S SA Sensors (Cytiva). The sensors were then blocked with 0.1 mg/mL biotin. DCPs were injected onto the sensor in a 3× concentration series. The data were double-referenced by subtracting the signal from a sensor channel coated with biotin only and the signal from a buffer injection. For data analysis, binding data were fitted using the manufacturer’s software. ,

In a further test the target is T2, mouse RNF43 (Mus musculus, UniProt Q5NCP0).
T2 sequence (Q5NCP0 24-197 limits assumed): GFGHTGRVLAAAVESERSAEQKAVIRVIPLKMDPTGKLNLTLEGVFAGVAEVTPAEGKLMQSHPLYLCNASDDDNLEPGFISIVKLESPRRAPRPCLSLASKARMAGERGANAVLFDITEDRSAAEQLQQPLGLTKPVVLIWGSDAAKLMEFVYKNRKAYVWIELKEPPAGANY
The test can be described thus: SPR binding of DCPs to mouse RNF43. To be noted: independently performed at least three times. The protocol:
as §1

For another test, the target named is T3, deglycosylated RNF43 (Homo sapiens, UniProt Q68DV7).
T3 construct: ECD of the human RNF43 protein was incubated with EZ-link-NHS-PEG4-biotin; biotin (chemical label, NHS-PEG4-biotin)
T3 sequence (Q68DV7 24-197): T1 sequence (Q68DV7 24-197 limits assumed)
The test can be described thus: SPR binding to deglycosylated RNF43. Particulars: biotinylated RNF43 treated with Deglycosylation Mix II, fitted data of representative sensorgram. The protocol:
as §1
Protein deglycosylation was performed on a small scale using Deglycosylation Mix II (P6044, NEB), according to the manufacturer’s instructions. Briefly, the biotinylated RNF43 was incubated with Deglycosylation Mix II for 1 h at RT. Then the reaction mixture was transferred to 37 °C and further incubated overnight. Following incubation, the reaction mixture was analyzed by mobility shift on SDS-PAGE gels. After dialysis, the protein was then used for further applications.

Take `CC[C@H](C)[C@H](NC(=O)[C@@H]1CSSC[C@H](NC(=O)[C@@H](NC(=O)[C@H](Cc2c[nH]cn2)NC(=O)[C@H](CO)NC(=O)[C@H](Cc2ccc(O)cc2)NC(=O)[C@H](CC(=O)O)NC(=O)[C@H](Cc2c[nH]cn2)NC(=O)[C@@H]2CSSC[C@H](NC(=O)[C@H](CCC(N)=O)NC(=O)[C@@H](N)CCC(=O)O)C(=O)N[C@@H]([C@@H](C)O)C(=O)N[C@@H](CO)C(=O)N[C@@H]([C@@H](C)O)C(=O)N[C@@H](CCC(N)=O)C(=O)N[C@@H](CC(=O)O)C(=O)N[C@@H](CC(C)C)C(=O)N2)C(C)C)C(=O)N[C@H]2CSSC[C@H](NC(=O)[C@H](CC(=O)O)NC(=O)[C@H](CC(C)C)NC(=O)[C@@H]3CCCN3C(=O)[C@H](Cc3c[nH]c4ccccc34)NC2=O)C(=O)N[C@@H](CCCNC(=N)N)C(=O)N[C@@H](Cc2c[nH]c3ccccc23)C(=O)N[C@@H](C)C(=O)N[C@@H](C(C)C)C(=O)N[C@@H](CCCCN)C(=O)N[C@@H](Cc2ccc(O)cc2)C(=O)N[C@@H](CCC(N)=O)C(=O)N[C@@H](Cc2c[nH]c3ccccc23)C(=O)N[C@@H](Cc2ccccc2)C(=O)N[C@@H](Cc2c[nH]c3ccccc23)C(=O)N[C@@H](CC(=O)O)C(=O)N1)C(=O)NCC(=O)O` [GUR-1.6.12.2] (H-EQCTSTQDLCHDYSHVCCWPLDCRWAVKYQWFWDCIG-OH; disulfide 3-10, 17-35, 18-23): the “KD (h, nM)” value at human RNF43 is “single-digit nanomolar”. The compound further came in with a Kd at mouse RNF43 of 2.1 ± 0.2 nM. For the same compound, the “KD against deglycosylated RNF43” value on deglycosylated RNF43 was “remained unchanged”.
